In ChEMBL document CHEMBL1201862, “PubChem BioAssay data set” (2004):
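All cell lines were grown in 96-well plates and treated with compound for 48 hours. GI50 is the concentration that inhibits growth by half.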 Activity calls are given as the source filed them. Cut-off read from the data, not from the text of the source: active = GI50 up to about 1.1 µM and inactive = higher.

Legend:
Assay in all cases: growth of human tumour cells (NCI), 48 h
A549 = tested on: A549
COLO 205 = tested on: COLO 205
HCC 2998 = tested on: HCC 2998
HCT-116 = tested on: HCT-116
HL-60 = tested on: HL-60
HT-29 = tested on: HT-29
K562 = tested on: K562
LOX IMVI = tested on: LOX IMVI
MDA-N = tested on: MDA-N
NCI-H226 = tested on: NCI-H226
NCI-H522 = tested on: NCI-H522
NCI/ADR-RES = tested on: NCI/ADR-RES
RPMI-8226 = tested on: RPMI-8226
SF-268 = tested on: SF-268
SK-MEL-28 = tested on: SK-MEL-28
SK-MEL-2 = tested on: SK-MEL-2
SR = tested on: SR
TK-10 = tested on: TK-10
UACC-257 = tested on: UACC-257
Malme-3M = tested on: Malme-3M

Structure (SMILES) | GI50 (A549) | GI50 (COLO 205) | GI50 (HCC 2998) | GI50 (HCT-116) | GI50 (HL-60) | GI50 (HT-29) | GI50 (K562) | GI50 (LOX IMVI) | GI50 (MDA-N) | GI50 (NCI-H226) | GI50 (NCI-H522) | GI50 (NCI/ADR-RES) | GI50 (RPMI-8226) | GI50 (SF-268) | GI50 (SK-MEL-28) | GI50 (SK-MEL-2) | GI50 (SR) | GI50 (TK-10) | GI50 (UACC-257) | GI50 (Malme-3M)
CN(N=O)C(=O)NNC(=O)N(C)N=O | > 100 µM (inactive) | 50.1 µM (inactive) | > 100 µM (inactive) | 74 µM (inactive) | 31.6 µM (inactive) | > 100 µM (inactive) | 66.1 µM (inactive) | 44.4 µM (inactive) | > 100 µM (inactive) | > 100 µM (inactive) | 27 µM (inactive) | > 100 µM (inactive) | 32.7 µM (inactive) | 38.9 µM (inactive) | > 100 µM (inactive) | 73.3 µM (inactive) | 8.81 µM (inactive) | > 100 µM (inactive) | > 100 µM (inactive) | 
CCSC1=N/C(=C\c2ccco2)C(Nc2ccc(C)cc2)=N1 | > 100 µM (inactive) | > 100 µM (inactive) |  | > 100 µM (inactive) |  | > 100 µM (inactive) | > 100 µM (inactive) | > 100 µM (inactive) | > 100 µM (inactive) | > 100 µM (inactive) | > 100 µM (inactive) | > 100 µM (inactive) | > 100 µM (inactive) | > 100 µM (inactive) | > 100 µM (inactive) | > 100 µM (inactive) | > 100 µM (inactive) | > 100 µM (inactive) |  | 52 µM (inactive)
C[C@H](N)C(=O)Nc1ccc(-c2nc3ccccc3s2)cc1 | 15.6 µM (inactive) | 18.6 µM (inactive) | 20.9 µM (inactive) | 15.2 µM (inactive) |  | 20.9 µM (inactive) | 21.5 µM (inactive) | 19.1 µM (inactive) | 18.7 µM (inactive) | 26.8 µM (inactive) | 18.5 µM (inactive) | 28.6 µM (inactive) |  | 41.3 µM (inactive) | 18.5 µM (inactive) | 28.6 µM (inactive) | 15.1 µM (inactive) | 24.5 µM (inactive) | 39.1 µM (inactive) | 19.1 µM (inactive)
O=[N+]([O-])c1cccc(/C=N/NC2=CS(=O)(=O)C=C2)c1 | > 100 µM (inactive) | > 100 µM (inactive) |  | > 100 µM (inactive) | 42.6 µM (inactive) | > 100 µM (inactive) | > 100 µM (inactive) | > 100 µM (inactive) | > 100 µM (inactive) | > 100 µM (inactive) | > 100 µM (inactive) | > 100 µM (inactive) | > 100 µM (inactive) | > 100 µM (inactive) | > 100 µM (inactive) | > 100 µM (inactive) | > 100 µM (inactive) | > 100 µM (inactive) | > 100 µM (inactive) | > 100 µM (inactive)
CSCCC(C(=O)O)N(C)C (stereo unspecified) | > 100 µM (inactive) | > 100 µM (inactive) |  | > 100 µM (inactive) | > 100 µM (inactive) | > 100 µM (inactive) | 41.9 µM (inactive) | > 100 µM (inactive) | > 100 µM (inactive) | > 100 µM (inactive) | > 100 µM (inactive) | > 100 µM (inactive) | > 100 µM (inactive) | > 100 µM (inactive) | > 100 µM (inactive) | > 100 µM (inactive) | > 100 µM (inactive) | > 100 µM (inactive) | > 100 µM (inactive) | > 100 µM (inactive)
CC(CCCCNC(=O)OC(C)(C)C)NC(=O)NC(C)CCCCNC(=O)OC(C)(C)C (stereo unspecified) | > 100 µM (inactive) | 56.6 µM (inactive) |  | 50.7 µM (inactive) | 39 µM (inactive) | > 100 µM (inactive) | 83.2 µM (inactive) | > 100 µM (inactive) | 72.6 µM (inactive) | 54 µM (inactive) | > 100 µM (inactive) | > 100 µM (inactive) |  | > 100 µM (inactive) | > 100 µM (inactive) |  | 99.8 µM (inactive) | 31.3 µM (inactive) | 43.5 µM (inactive) | > 100 µM (inactive)
CCOC(=O)c1c(N2CCOCC2)[nH]c(=O)c(C(c2ccc(Cl)c([N+](=O)[O-])c2)c2c(O)c(C(=O)OCC)c(N3CCOCC3)[nH]c2=O)c1O | > 100 µM (inactive) | > 100 µM (inactive) | > 100 µM (inactive) | 20.3 µM (inactive) |  | 20.9 µM (inactive) | 30.3 µM (inactive) | 19.5 µM (inactive) | 26.1 µM (inactive) | > 100 µM (inactive) | 28 µM (inactive) | 39 µM (inactive) | 26.7 µM (inactive) | 44.2 µM (inactive) | 42.6 µM (inactive) |  | 36.1 µM (inactive) | 39.9 µM (inactive) | 70 µM (inactive) | 41.4 µM (inactive)
COC(=O)/C=C(/C=C1/C(C#N)=C(N)N(c2ccc(Cl)cc2)C1(C)/C(=C/C(=O)OC)C(=O)OC)C(=O)OC (stereo unspecified) |  | 25.1 µM (inactive) | 82.6 µM (inactive) | 28.9 µM (inactive) | 15.7 µM (inactive) | 33.4 µM (inactive) | 20.6 µM (inactive) | 23.9 µM (inactive) | 45.1 µM (inactive) |  | 33.2 µM (inactive) | 53 µM (inactive) | 24.7 µM (inactive) | > 100 µM (inactive) | > 100 µM (inactive) | > 100 µM (inactive) | 29.6 µM (inactive) | 60.1 µM (inactive) | 63.4 µM (inactive) | 51.2 µM (inactive)
C[As+](C)(c1ccc(Br)c([N+](=O)[O-])c1)c1ccc(Br)c([N+](=O)[O-])c1 | > 100 µM (inactive) | > 100 µM (inactive) | > 100 µM (inactive) | > 100 µM (inactive) |  | > 100 µM (inactive) | > 100 µM (inactive) | > 100 µM (inactive) | > 100 µM (inactive) | > 100 µM (inactive) | 87.7 µM (inactive) | > 100 µM (inactive) | 44.7 µM (inactive) | > 100 µM (inactive) | 27.9 µM (inactive) | > 100 µM (inactive) | > 100 µM (inactive) | > 100 µM (inactive) | > 100 µM (inactive) | 18.5 µM (inactive)
CN1/C(=C/C=C/C=C/C=C2C(=O)c3ccccc3C2=O)C(C)(C)c2ccccc21 | 7 µM (inactive) | 26.6 µM (inactive) |  | > 100 µM (inactive) | 36.6 µM (inactive) | > 100 µM (inactive) | 13.3 µM (inactive) | 40.3 µM (inactive) | 35.6 µM (inactive) | 51.9 µM (inactive) | 28.6 µM (inactive) | 76.2 µM (inactive) | 6.55 µM (inactive) | 43.3 µM (inactive) |  | 20.3 µM (inactive) | > 100 µM (inactive) | > 100 µM (inactive) | 17.5 µM (inactive) | 29.4 µM (inactive)
CC(C)=CCc1cc(/C=C/C(=O)O)cc(CC=C(C)C)c1O [ARTEPILLIN] | > 100 µM (inactive) | > 100 µM (inactive) |  | > 100 µM (inactive) | > 100 µM (inactive) | 47.3 µM (inactive) | 76 µM (inactive) | 43.7 µM (inactive) | > 100 µM (inactive) |  | 31.3 µM (inactive) | > 100 µM (inactive) | 76.6 µM (inactive) | > 100 µM (inactive) |  | > 100 µM (inactive) | > 100 µM (inactive) | > 100 µM (inactive) | > 100 µM (inactive) | 
Cc1ccc(O)c(C2=CC(c3cccc(Br)c3)SC(=N)N2)c1 (stereo unspecified) | 25.8 µM (inactive) | 17.5 µM (inactive) |  | 17.3 µM (inactive) | 29 µM (inactive) | 33.7 µM (inactive) | 24.5 µM (inactive) | 18.5 µM (inactive) | 19.7 µM (inactive) | 26.9 µM (inactive) | 16 µM (inactive) | 27.9 µM (inactive) | 18 µM (inactive) | 28.8 µM (inactive) |  | 18.2 µM (inactive) | 17.1 µM (inactive) | 19.6 µM (inactive) | 20.1 µM (inactive) | 25.2 µM (inactive)
C(=C\c1cc(-c2ccc3ccccc3n2)nc2ccc3ccccc3c12)/c1ccc2ccccc2n1 | > 100 µM (inactive) | > 100 µM (inactive) | > 100 µM (inactive) | > 100 µM (inactive) | > 100 µM (inactive) | > 100 µM (inactive) | > 100 µM (inactive) | > 100 µM (inactive) | > 100 µM (inactive) | > 100 µM (inactive) |  | > 100 µM (inactive) | > 100 µM (inactive) | 74.1 µM (inactive) | > 100 µM (inactive) |  | > 100 µM (inactive) | > 100 µM (inactive) | > 100 µM (inactive) | > 100 µM (inactive)
CC(=O)NC1C(OC(C)C(=O)NC(C(=O)NC(CCC(=O)NCCCNC2c3ccccc3Nc3cccc([N+](=O)[O-])c32)C(N)=O)C(C)C)C(O)C(CO)OC1(C)OCc1ccccc1 (stereo unspecified) | 0.399 µM (active) | 0.556 µM (active) | 0.671 µM (active) | 0.256 µM (active) |  | 0.152 µM (active) | 0.363 µM (active) | 1.47 µM (inactive) | 0.634 µM (active) | 1.13 µM (inactive) | 0.637 µM (active) | 2.02 µM (inactive) | 0.353 µM (active) | 0.998 µM (active) |  | 1.22 µM (inactive) | 0.215 µM (active) | 0.133 µM (active) | 2.33 µM (inactive) | 1.12 µM (inactive)
Cn1nc2n(c1=O)CCCN2 | > 100 µM (inactive) | > 100 µM (inactive) | > 100 µM (inactive) | > 100 µM (inactive) | > 100 µM (inactive) | > 100 µM (inactive) | > 100 µM (inactive) | > 100 µM (inactive) | > 100 µM (inactive) | > 100 µM (inactive) | > 100 µM (inactive) | > 100 µM (inactive) | > 100 µM (inactive) | > 100 µM (inactive) | > 100 µM (inactive) |  | > 100 µM (inactive) | > 100 µM (inactive) | > 100 µM (inactive) | > 100 µM (inactive)
